Measurements from PubChem BioAssay (NCI).
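In this assay, cells in 96-well plates receive the compound at five concentrations for 48 hours. Endpoints are linearly interpolated between the surrounding concentrations. GI50: concentration for 50% inhibition of growth. TGI is the concentration that stops growth completely.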

Experiments:
Assay in all cases: NCI-60 cell line screen, 48 h
[1] = tested on: A498 renal
[2] = tested on: SK-MEL-28 melanoma
[3] = tested on: LOX IMVI melanoma
[4] = tested on: KM12 colon
[5] = tested on: HT29 colon
[6] = tested on: NCI-H460 lung
[7] = tested on: EKVX NSCLC
[8] = tested on: IGROV1 ovarian
[9] = tested on: CCRF-CEM leukemia
[10] = tested on: NCI-H23 lung
[11] = tested on: ACHN renal
[12] = tested on: HL-60(TB) leukemia
[13] = tested on: SK-MEL-2 melanoma
[14] = tested on: HOP-92 NSCLC
[15] = tested on: MCF7 breast
[16] = tested on: K-562 leukemia
[17] = tested on: HOP-62 NSCLC
[18] = tested on: PC-3 prostate
[19] = tested on: RXF 393 renal
[20] = tested on: BT-549 breast
[21] = tested on: CAKI-1 renal
[22] = tested on: SR leukemia
[23] = tested on: SNB-19 CNS
[24] = tested on: SK-OV-3 ovarian
[25] = tested on: SK-MEL-5 melanoma
[26] = tested on: RPMI-8226 leukemia
[27] = tested on: SF-268 CNS
[28] = tested on: A549 NSCLC
[29] = tested on: DU-145 prostate
[30] = tested on: OVCAR-4 ovarian
[31] = tested on: M14 melanoma
[32] = tested on: HCT-116 colon
[33] = tested on: SW-620 colon
[34] = tested on: OVCAR-8 ovarian
[35] = tested on: NCI-H226 lung
[36] = tested on: 786-0 renal
[37] = tested on: OVCAR-5 ovarian
[38] = tested on: UACC-62 melanoma
[39] = tested on: HS 578T breast
[40] = tested on: HCC-2998 colon
[41] = tested on: COLO 205 colon
[42] = tested on: SF-539 CNS
[43] = tested on: NCI-H522 lung
[44] = tested on: MDA-MB-435
[45] = tested on: U251 CNS
[46] = tested on: NCI/ADR-RES ovarian
[47] = tested on: MOLT-4 leukemia
[48] = tested on: T-47D breast
[49] = tested on: MDA-MB-231 breast
[50] = tested on: TK-10 renal
[51] = tested on: UO-31 renal
[52] = tested on: OVCAR-3 ovarian
[53] = tested on: SF-295 CNS
[54] = tested on: HCT-15 colon
[55] = tested on: MDA-MB-468 breast
[56] = tested on: UACC-257 melanoma
[57] = tested on: MALME-3M melanoma
[58] = tested on: SN12C renal

COc1ccc2c3nc4cc(C)c(C)cc4nc3n(CCN(C)C)c2c1
GI50 [1]: 11 µM | TGI [1]: 25.6 µM | GI50 [2]: 3.23 µM | TGI [2]: 11.9 µM | GI50 [3]: 1.09 µM | TGI [3]: 2.28 µM | GI50 [4]: 2.31 µM | TGI [4]: 11.4 µM | GI50 [5]: 3.02 µM | TGI [5]: 12.6 µM | GI50 [6]: 1.21 µM | TGI [6]: 3.2 µM | GI50 [7]: 3.34 µM | TGI [7]: 15.5 µM | GI50 [8]: 1.46 µM | TGI [8]: 13.3 µM | GI50 [9]: 3.47 µM | TGI [9]: 13.5 µM | GI50 [10]: 2.51 µM | TGI [10]: 11.5 µM | GI50 [11]: 1.38 µM | TGI [11]: 4.19 µM | GI50 [12]: 1.18 µM | TGI [12]: 2.95 µM | GI50 [13]: 3.88 µM | TGI [13]: 15.8 µM | GI50 [14]: 0.452 µM | TGI [14]: 6.02 µM | GI50 [15]: 1.02 µM | TGI [15]: 2.95 µM | GI50 [16]: 1.44 µM | TGI [16]: 4.89 µM | GI50 [17]: 2.53 µM | TGI [17]: 13 µM | GI50 [18]: 1.58 µM | TGI [18]: 12.9 µM | GI50 [19]: 2.38 µM | TGI [19]: 9.71 µM | GI50 [20]: 2.94 µM | TGI [20]: 16.4 µM | GI50 [21]: 0.981 µM | TGI [21]: 6.65 µM | GI50 [22]: 1.32 µM | TGI [22]: 5.33 µM | GI50 [23]: 3.42 µM | TGI [23]: 16.3 µM | GI50 [24]: 3.58 µM | TGI [24]: 16.2 µM | GI50 [25]: 1.5 µM | TGI [25]: 2.98 µM | GI50 [26]: 1.81 µM | TGI [26]: 4.85 µM | GI50 [27]: 3.41 µM | TGI [27]: 16.2 µM | GI50 [28]: 1.34 µM | TGI [28]: 3.34 µM | GI50 [29]: 2.74 µM | TGI [29]: 12 µM | GI50 [30]: 2.82 µM | TGI [30]: 16.2 µM | GI50 [31]: 1.32 µM | TGI [31]: 2.95 µM | GI50 [32]: 1.27 µM | TGI [32]: 2.74 µM | GI50 [33]: 1.27 µM | TGI [33]: 8.47 µM | GI50 [34]: 1.43 µM | TGI [34]: 3.47 µM | GI50 [35]: 1.58 µM | TGI [35]: 3.81 µM | GI50 [36]: 2.73 µM | TGI [36]: 10.5 µM | GI50 [37]: 2.96 µM | TGI [37]: 12.6 µM | GI50 [38]: 1.61 µM | TGI [38]: 5.2 µM | GI50 [39]: 7.19 µM | TGI [39]: 32.5 µM | GI50 [40]: 1.31 µM | TGI [40]: 3.44 µM | GI50 [41]: 5.93 µM | TGI [41]: 20.8 µM | GI50 [42]: 1.49 µM | TGI [42]: 2.98 µM | GI50 [43]: 0.665 µM | TGI [43]: 7.87 µM | GI50 [44]: 2.5 µM | TGI [44]: 11 µM | GI50 [45]: 1.39 µM | TGI [45]: 3.89 µM | GI50 [46]: 2.28 µM | TGI [46]: 12 µM | GI50 [47]: 2.2 µM | TGI [47]: 7.29 µM | GI50 [48]: 1.78 µM | TGI [48]: 13.6 µM | GI50 [49]: 1.79 µM | TGI [49]: 9.32 µM | GI50 [50]: 6.87 µM | TGI [50]: 19 µM | GI50 [51]: 0.542 µM | TGI [51]: 7.76 µM | GI50 [52]: 2.24 µM | TGI [52]: 5.23 µM | GI50 [53]: 1.65 µM | TGI [53]: 5.55 µM | GI50 [54]: 1.31 µM | TGI [54]: 3.54 µM | GI50 [55]: 1.17 µM | TGI [55]: 3.18 µM | GI50 [56]: 3.97 µM | TGI [56]: 15.1 µM | GI50 [57]: 1.45 µM | TGI [57]: 3.28 µM | GI50 [58]: 1.54 µM | TGI [58]: 5.96 µM

O=C(Nc1ccc(I)cc1)Nc1nc2ccc([N+](=O)[O-])cc2s1
GI50 [1]: 2.83 µM | TGI [1]: 9.14 µM | GI50 [2]: 3.19 µM | TGI [2]: 10.7 µM | GI50 [3]: 3.49 µM | TGI [3]: 11.7 µM | GI50 [4]: 3.36 µM | TGI [4]: 11.6 µM | GI50 [5]: 3.32 µM | TGI [5]: 13.4 µM | GI50 [6]: 3.21 µM | TGI [6]: 10.4 µM | GI50 [7]: 3.08 µM | TGI [7]: 10.9 µM | GI50 [8]: 3.67 µM | TGI [8]: 14 µM | GI50 [9]: 3.4 µM | TGI [9]: 10.8 µM | GI50 [10]: 2.23 µM | TGI [10]: 5.85 µM | GI50 [11]: 3.25 µM | TGI [11]: 10.4 µM | GI50 [12]: 2.41 µM | TGI [12]: 6.05 µM | GI50 [14]: 2.03 µM | TGI [14]: 6.28 µM | GI50 [15]: 2.59 µM | TGI [15]: 7.79 µM | GI50 [16]: 3.23 µM | TGI [16]: 10.9 µM | GI50 [17]: 3.44 µM | TGI [17]: 12.5 µM | GI50 [18]: 3.16 µM | TGI [18]: 11.4 µM | GI50 [19]: 3.53 µM | TGI [19]: 12.9 µM | GI50 [20]: 2.31 µM | TGI [20]: 7.29 µM | GI50 [21]: 3.32 µM | TGI [21]: 12.1 µM | GI50 [22]: 2.24 µM | TGI [22]: 5.84 µM | GI50 [23]: 3.44 µM | TGI [23]: 12.9 µM | GI50 [24]: 2.93 µM | TGI [24]: 9.16 µM | GI50 [25]: 1.93 µM | TGI [25]: 3.9 µM | GI50 [26]: 2.07 µM | TGI [26]: 5.23 µM | GI50 [27]: 3.63 µM | TGI [27]: 14.6 µM | GI50 [28]: 3.54 µM | TGI [28]: 13.5 µM | GI50 [29]: 3.99 µM | TGI [29]: 14 µM | GI50 [30]: 3.69 µM | TGI [30]: 14.5 µM | GI50 [31]: 3.62 µM | TGI [31]: 13.2 µM | GI50 [32]: 2.66 µM | TGI [32]: 11 µM | GI50 [33]: 3.56 µM | TGI [33]: 13.1 µM | GI50 [34]: 3.48 µM | TGI [34]: 11.8 µM | GI50 [35]: 3.45 µM | TGI [35]: 13 µM | GI50 [36]: 3.5 µM | TGI [36]: 13.4 µM | GI50 [37]: 4.11 µM | TGI [37]: 15.9 µM | GI50 [38]: 2.99 µM | TGI [38]: 10.3 µM | GI50 [39]: 3.01 µM | TGI [39]: 9.9 µM | GI50 [40]: 3.59 µM | TGI [40]: 12.3 µM | GI50 [41]: 2.64 µM | TGI [41]: 6.52 µM | GI50 [42]: 3.01 µM | TGI [42]: 9.39 µM | GI50 [43]: 2.29 µM | TGI [43]: 6.75 µM | GI50 [44]: 3.47 µM | TGI [44]: 12.5 µM | GI50 [45]: 3.23 µM | TGI [45]: 10.7 µM | GI50 [46]: 2.92 µM | TGI [46]: 9.27 µM | GI50 [47]: 2.57 µM | TGI [47]: 7.12 µM | GI50 [48]: 2.8 µM | TGI [48]: 8.71 µM | GI50 [50]: 3.67 µM | TGI [50]: 11.7 µM | GI50 [52]: 3.48 µM | TGI [52]: 12.6 µM | GI50 [53]: 2.93 µM | TGI [53]: 10.6 µM | GI50 [54]: 3.2 µM | TGI [54]: 11.2 µM | GI50 [55]: 2.83 µM | TGI [55]: 7.4 µM | GI50 [56]: 2.83 µM | TGI [56]: 8.24 µM | GI50 [57]: 2.41 µM | TGI [57]: 6.89 µM | GI50 [58]: 2.86 µM | TGI [58]: 9.42 µM
